Measurements from patent US10934309B2, “Tricyclic quinone derivative” (Boston Biomedical, Inc., priority 2014, dated 2021).

How the values were obtained:
Format in all cases: cell-based, human
HCT-116 cells [1] = assay: Inhibition assay of cancer cell sphere-forming ability (Test Example 2), HCT-116; conditions: Homo sapiens, HCT-116, 96 h, HCT-116 cells, Ultra-Low Attachment plate, serum-free DMEM/F12 with B27, EGF, bFGF, insulin, 4 days, Cell Titer-Glo; read-out: IC50 (μM) HCT; concentration for 50% inhibition of cell proliferation (Sphere IC50 value)
In short: (§1)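 Human tumour lines (colon HCT-116, HT-29; hypopharynx FaDu) seeded on ultra-low-attachment plates to form spheres. Compound added at 0.1% final DMSO, cultured 4 days.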

cancer cells [2] = assay: Proliferation inhibition test of cancer cells, overall statement on Table 1; conditions: summary of Table 1
Method: HCT-116 cells (derived from human colon adenocarcinoma), HT-29 cells (derived from human colon cancer), and FaDu cells (derived from human hypopharynx cancer) were obtained from American Type Culture Collection (ATCC). HCT-116 cells and HT-29 cells were cultured using McCoy's 5a medium containing 10% fetal bovine serum (FBS) and 1% penicillin/streptomycin, and FaDu cells were cultured using MEM medium containing 10% FBS, 1% non-essential amino acid, 1% sodium pyruvate, and 1% penicillin/streptomycin, respectively, at 37° C. in the presence of 5% CO2. After cells were seeded at 300-600 cells/well onto black μClear-plate 384 well (Greiner bio-one Cat. No. 781091), a test substance was added such that the final concentration of DMSO is 0.1%, and cultured for 4 days. The number of living cells was then counted using Cell Titer-Glo (Registered trademark) Luminescent Cell Viability Assay (Promega) to calculate a concentration for 50% inhibition of cell proliferation of respective test substances (Bulk IC50 value; μM).

HT-29 cells [3] = assay: Inhibition assay of cancer cell sphere-forming ability (Test Example 2), HT-29; conditions: Homo sapiens, HT-29, 96 h, HT-29 cells, Ultra-Low Attachment plate, serum-free DMEM/F12 with B27, EGF, bFGF, insulin, 4 days, Cell Titer-Glo; read-out: IC50 (μM) HT; concentration for 50% inhibition of cell proliferation (Sphere IC50 value)
In short: as §1

FaDu cells [4] = assay: Proliferation inhibition assay of cancer cells (Test Example 1), FaDu; conditions: Homo sapiens, FaDu, 96 h, FaDu cells, cultured for 4 days, Cell Titer-Glo; read-out: IC50 (μM) FaDu; concentration for 50% inhibition of cell proliferation (Bulk IC50 value)
In short: (§2)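 Test substance added at a final DMSO level of 0.1% and cells cultured 4 days; plating density 300-600 cells/well in 384-well plates, with human colon lines HCT-116 and HT-29 and hypopharyngeal line FaDu.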

FaDu cells [5] = assay: Inhibition assay of cancer cell sphere-forming ability (Test Example 2), FaDu; conditions: Homo sapiens, FaDu, 96 h, FaDu cells, Ultra-Low Attachment plate, serum-free DMEM/F12 with B27, EGF, bFGF, insulin, 4 days, Cell Titer-Glo; read-out: IC50 (μM) FaDu; concentration for 50% inhibition of cell proliferation (Sphere IC50 value)
In short: as §1

HCT-116 cells [6] = assay: Proliferation inhibition assay of cancer cells (Test Example 1), HCT-116; conditions: Homo sapiens, HCT-116, 96 h, HCT-116 cells, cultured for 4 days, Cell Titer-Glo; read-out: IC50 (μM) HCT; concentration for 50% inhibition of cell proliferation (Bulk IC50 value)
In short: as §2

HT-29 cells [7] = assay: Proliferation inhibition assay of cancer cells (Test Example 1), HT-29; conditions: Homo sapiens, HT-29, 96 h, HT-29 cells, cultured for 4 days, Cell Titer-Glo; read-out: IC50 (μM) HT; concentration for 50% inhibition of cell proliferation (Bulk IC50 value)
In short: as §2

cancer cells [8] = assay: Inhibition test of cancer cell sphere-forming ability, overall statement on Table 2; conditions: summary of Table 2
Method: HCT-116 cells (derived from human colon adenocarcinoma), HT-29 cells (derived from human colon cancer), FaDu cells (derived from human hypopharynx cancer) were obtained from American Type Culture Collection (ATCC). HCT-116 cells and HT-29 cells were cultured using McCoy's 5a medium containing 10% fetal bovine serum (FBS) and 1% penicillin/streptomycin, and FaDu cells were cultured using MEM medium containing 10% FBS, 1% non-essential amino acid, 1% sodium pyruvate, and 1% penicillin/streptomycin, respectively, at 37° C. in the presence of 5% CO2. HCT-116 cells, HT-29 cells, and FaDu cells were seeded onto 384 Well Black Clear Bottom Ultra-Low Attachment Microplate (Corning Cat. No. 3827) using DMEM/F12 medium containing 2% B27 supplement (GIBCO), 20 ng/mL epidermal growth factor (EGF) (peprotech), 10 ng/mL basic fibroblast growth factor (bFGF) (peprotech), 5 μg/mL insulin (Sigma), and 1% penicillin/streptomycin to be 350-800 cells/well. A test substance was added so that the final concentration of DMSO is 0.1%, and then cultured for 4 days. The number of living cells was then counted using Cell Titer-Glo (registered trademark) Luminescent Cell Viability Assay (Promega) to calculate the concentration for 50% inhibition of cell proliferation of respective test substances (Sphere IC50 value; μM).

SMILES | IC50 (HCT-116 cells [1]) [µM] | effect on the inhibition of the proliferation of cancer cells (in words) (cancer cells [2]) | IC50 (HT-29 cells [3]) [µM] | IC50 (FaDu cells [4]) [µM] | IC50 (FaDu cells [5]) [µM] | IC50 (HCT-116 cells [6]) [µM] | IC50 (HT-29 cells [7]) [µM] | effect to inhibit cancer cell sphere-forming ability (in words) (cancer cells [8])
N#Cc1cc2c(s1)C(=O)c1ccncc1C2=O [Example 29, 4,9-dioxo-4,9-dihydrothieno[2,3-g]isoquinoline-2-carbonitrile] | 0.05 | particularly strong effect | 0.05 | < 0.01 | < 0.01 | 0.04 | 0.32 | particularly strong effect
CC(F)c1cc2c(s1)C(=O)c1ccncc1C2=O (stereo not shown) [Example 30, 2-(1-fluoroethyl)thieno[2,3-g]isoquinoline-4,9-dione] | < 0.01 | particularly strong effect | < 0.01 | < 0.01 | < 0.01 | < 0.01 | 0.05 | particularly strong effect
CCc1noc(-c2cc3c(s2)C(=O)c2ccncc2C3=O)n1 [Example 31, 2-(3-ethyl-1,2,4-oxadiazol-5-yl)thieno[2,3-g]isoquinoline-4,9-dione] | 0.03 | particularly strong effect | < 0.01 | < 0.01 | < 0.01 | 0.04 | 0.31 | particularly strong effect
CC(=O)c1cc2c(s1)C(=O)c1cnccc1C2=O [Example 33, 2-acetylthieno[3,2-g]isoquinoline-4,9-dione] | 0.02 | particularly strong effect | 0.07 | < 0.01 | < 0.01 | < 0.01 | 0.09 | particularly strong effect
O=C(NCC(F)F)c1cc2c(o1)C(=O)c1ccncc1C2=O [Example 46, N-(2,2-difluoroethyl)-4,9-dioxo-4,9-dihydrofuro[2,3-g]isoquinoline-2-carboxamide] | 0.04 | particularly strong effect | 0.05 | < 0.01 | < 0.01 | < 0.01 | 0.05 | particularly strong effect
CC(O)c1cc2c(o1)C(=O)c1cnccc1C2=O (stereo not shown) [Example 49, 2-(1-hydroxyethyl)furo[3,2-g]isoquinoline-4,9-dione] | 0.04 | particularly strong effect | 0.06 | < 0.01 | < 0.01 | 0.04 | 0.08 | particularly strong effect
O=C1c2ccncc2C(=O)c2c1oc(C(F)F)c2C(=O)N1CCOCC1 [Example 62, 2-(difluoromethyl)-3-(morpholine-4-carbonyl)furo[2,3-g]isoquinoline-4,9-dione] | 0.05 | particularly strong effect | 0.04 | 0.04 | < 0.01 | 0.06 | 0.57 | particularly strong effect
O=C1c2cnccc2C(=O)c2oc(C(F)F)cc21 [Example 63, 2-(difluoromethyl)furo[2,3-g]isoquinoline-4,9-dione] | 0.06 | particularly strong effect | 0.24 | 0.05 | 0.04 | 0.05 | 0.54 | particularly strong effect
